Earlier results as cited in US7923560B2, “Delivery of immune response modifier compounds” (3M Innovative Properties Company, priority 2003, dated 2011).

Key:
[1] = target: T1, TLR 8 (Homo sapiens, UniProt Q9NR97)
T1 construct: expressed in transfected cells
T1 sequence (Q9NR97 27-1041): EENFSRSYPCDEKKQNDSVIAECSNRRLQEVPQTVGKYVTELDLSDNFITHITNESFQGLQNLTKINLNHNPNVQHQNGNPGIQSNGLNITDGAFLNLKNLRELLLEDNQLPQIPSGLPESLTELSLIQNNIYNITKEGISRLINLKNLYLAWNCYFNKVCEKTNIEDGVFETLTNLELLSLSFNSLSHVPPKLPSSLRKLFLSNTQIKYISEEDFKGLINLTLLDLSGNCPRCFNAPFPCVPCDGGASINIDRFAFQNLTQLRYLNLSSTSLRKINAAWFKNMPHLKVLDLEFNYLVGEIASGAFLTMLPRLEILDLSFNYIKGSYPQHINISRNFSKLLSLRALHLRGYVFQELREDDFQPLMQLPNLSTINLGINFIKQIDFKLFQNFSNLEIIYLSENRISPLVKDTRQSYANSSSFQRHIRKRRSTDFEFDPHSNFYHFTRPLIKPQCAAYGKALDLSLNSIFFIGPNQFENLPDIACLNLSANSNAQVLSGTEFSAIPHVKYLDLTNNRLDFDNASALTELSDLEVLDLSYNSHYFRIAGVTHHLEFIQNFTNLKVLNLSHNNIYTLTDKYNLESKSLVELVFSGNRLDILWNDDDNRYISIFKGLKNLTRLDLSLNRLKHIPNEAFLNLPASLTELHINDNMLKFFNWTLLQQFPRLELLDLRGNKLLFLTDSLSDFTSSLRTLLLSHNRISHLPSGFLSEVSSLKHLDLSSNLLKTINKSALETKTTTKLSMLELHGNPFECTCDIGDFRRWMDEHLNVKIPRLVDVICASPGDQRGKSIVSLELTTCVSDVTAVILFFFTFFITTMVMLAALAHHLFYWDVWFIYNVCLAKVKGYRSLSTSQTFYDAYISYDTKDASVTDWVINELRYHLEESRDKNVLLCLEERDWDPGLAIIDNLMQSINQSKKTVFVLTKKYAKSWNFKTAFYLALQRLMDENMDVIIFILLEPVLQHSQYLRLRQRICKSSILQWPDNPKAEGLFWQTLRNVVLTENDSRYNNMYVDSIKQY

[2] = target: T2, TLR 7 (Homo sapiens, UniProt Q9NYK1)
T2 construct: expressed in transfected cells
T2 sequence (Q9NYK1 27-1049): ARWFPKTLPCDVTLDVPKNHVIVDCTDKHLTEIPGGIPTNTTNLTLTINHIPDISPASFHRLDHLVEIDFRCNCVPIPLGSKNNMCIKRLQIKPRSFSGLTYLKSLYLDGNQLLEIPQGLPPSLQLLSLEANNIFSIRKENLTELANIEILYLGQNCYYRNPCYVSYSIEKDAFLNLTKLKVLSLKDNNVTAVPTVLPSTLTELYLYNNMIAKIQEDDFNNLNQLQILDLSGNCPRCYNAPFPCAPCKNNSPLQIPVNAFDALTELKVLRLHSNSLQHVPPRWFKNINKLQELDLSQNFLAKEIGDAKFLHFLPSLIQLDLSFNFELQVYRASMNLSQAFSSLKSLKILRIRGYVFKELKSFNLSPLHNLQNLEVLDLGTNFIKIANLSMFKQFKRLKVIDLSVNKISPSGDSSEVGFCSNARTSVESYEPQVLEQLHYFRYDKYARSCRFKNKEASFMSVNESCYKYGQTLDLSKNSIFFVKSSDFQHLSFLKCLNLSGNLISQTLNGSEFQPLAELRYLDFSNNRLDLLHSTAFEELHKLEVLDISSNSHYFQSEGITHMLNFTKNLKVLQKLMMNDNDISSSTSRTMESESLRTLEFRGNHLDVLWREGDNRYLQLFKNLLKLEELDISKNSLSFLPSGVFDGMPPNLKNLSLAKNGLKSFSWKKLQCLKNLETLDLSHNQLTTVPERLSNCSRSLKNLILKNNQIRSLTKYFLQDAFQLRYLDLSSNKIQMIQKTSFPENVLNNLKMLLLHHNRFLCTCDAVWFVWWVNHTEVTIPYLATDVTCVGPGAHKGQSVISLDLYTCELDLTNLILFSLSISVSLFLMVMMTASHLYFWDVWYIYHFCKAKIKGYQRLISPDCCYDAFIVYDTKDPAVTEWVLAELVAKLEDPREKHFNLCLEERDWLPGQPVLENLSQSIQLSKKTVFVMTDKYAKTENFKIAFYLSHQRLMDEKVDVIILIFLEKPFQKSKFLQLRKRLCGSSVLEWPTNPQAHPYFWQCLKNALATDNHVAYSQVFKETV

[3] = delivered systemically, compared to imiquimod

TLR 8 agonist activity [1]	TLR 7 agonist activity [2]	CNS effect [3]	Compound
a TLR 7 and TLR 8 agonist	a TLR 7 and TLR 8 agonist		CCOCc1nc2c(N)nc3c(c2n1CC(C)(C)O)CCCC3 [4-amino-2-(ethoxymethyl)-α,α-dimethyl-6,7,8,9-tetrahydro-1H-imidazo[4,5-c]quinoline-1-ethanol]
not a substantial TLR 8 agonist	predominantly a TLR 7 agonist	much lower CNS effect	CC(C)(O)Cn1cnc2c(N)nc3ccccc3c21 [4-amino-α,α-dimethyl-1H-imidazo[4,5-c]quinoline-1-ethanol]
combination TLR 7 and TLR 8 agonist	combination TLR 7 and TLR 8 agonist		CCOCc1nc2c(N)nc3ccccc3c2n1CC(C)(C)O [Resiquimod, 4-amino-2-ethoxymethyl-α,α-dimethyl-1H-imidazo[4,5-c]quinoline-1-ethanol]
